The structures appear in SMILES notation.

The target of the first test is HIS-TGF-βR1 T204D (Homo sapiens (Human), UniProt P36897, T204D). The experiment in a line: HTRF probe displacement assay with HIS-TGF-βR1 T204D.
Sequence of HIS-TGF-βR1 T204D (P36897 34-503 T204D): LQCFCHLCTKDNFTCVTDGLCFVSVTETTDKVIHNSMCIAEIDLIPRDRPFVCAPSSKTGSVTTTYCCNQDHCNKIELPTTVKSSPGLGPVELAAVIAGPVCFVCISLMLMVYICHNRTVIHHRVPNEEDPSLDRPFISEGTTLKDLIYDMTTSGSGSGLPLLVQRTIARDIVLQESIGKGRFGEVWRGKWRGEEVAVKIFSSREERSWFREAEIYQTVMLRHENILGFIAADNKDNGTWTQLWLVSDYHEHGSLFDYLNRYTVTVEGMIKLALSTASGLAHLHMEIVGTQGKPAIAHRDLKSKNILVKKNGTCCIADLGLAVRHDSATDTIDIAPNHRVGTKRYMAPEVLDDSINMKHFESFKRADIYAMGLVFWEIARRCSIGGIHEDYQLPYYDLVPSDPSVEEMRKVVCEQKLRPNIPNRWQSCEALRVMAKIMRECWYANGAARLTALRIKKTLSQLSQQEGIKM
Settings: not given
A general note: Time-resolved FRET reads energy transfer from a long-lived donor to a nearby acceptor.
As usually defined, the IC50 is the concentration that inhibits the measured activity by half. As to `N#Cc1cnc2ccc(-c3c(-c4ccc(F)c(Cl)c4)ncn3CCC(F)(F)F)nn12` [35′, 6-(4-(3-chloro-4-fluorophenyl)-1-(3,3,3-trifluoropropyl)-1H-imidazol-5-yl)imidazo[1,2-b]pyridazine-3-carbonitrile], the IC50 is 2.6 nM.

The test is the same for the next values; noted with them: read-out: TGFbr1 IC50; HTRF probe displacement, 1 nM HIS-TGF-βR1 T204D, 1 hour at room temperature.
Regarding `N#Cc1cnc2ccc(-c3c(-c4ccc(F)c(Cl)c4)ncn3CCCl)nn12` [60′, 6-(4-(3-chloro-4-fluorophenyl)-1-(2-chloroethyl)-1H-imidazol-5-yl)imidazo[1,2-b]pyridazine-3-carbonitrile], the IC50 came to 0.9 nM.

As to `N#Cc1cnc2ccc(-c3c(-c4ccc(F)c(Cl)c4)ncn3[C@@H]3CCC(F)(F)C3)nn12` [63′, (R)-6-(4-(3-chloro-4-fluorophenyl)-1-(3,3-difluorocyclopentyl)-1H-imidazol-5-yl)imidazo[1,2-b]pyridazine-3-carbonitrile], the IC50 turned out to be 0.9 nM.

For the molecule `NCc1cnc2ccc(-c3c(-c4ccc(F)cc4)ncn3CC(F)F)nn12` [196A′, (6-(1-(2,2-difluoroethyl)-4-(4-fluorophenyl)-1H-imidazol-5-yl)imidazo[1,2-b]pyridazin-3-yl)methanamine], the half-maximal inhibitory concentration (IC50) turned out to be 20.1 nM.

Consider `N#Cc1cnc2ccc(-c3c(-c4ccc(F)cc4)ncn3CC(F)F)cn12` [Example 224′, 6-(1-(2,2-difluoroethyl)-4-(4-fluorophenyl)-1H-imidazol-5-yl)imidazo[1,2-a]pyridine-3-carbonitrile], for which the IC50 was 66.7 nM.

On to `CC(O)CCn1cnc(-c2ccc(F)cc2)c1-c1ccc2ncc(C(N)=O)n2c1` (stereo not drawn) [156′, 6-(4-(4-fluorophenyl)-1-(3-hydroxybutyl)-1H-imidazol-5-yl)imidazo[1,2-a]pyridine-3-carboxamide], for which the IC50 turned out to be 4.3 nM.

As to `N#Cc1cnc2ccc(-c3c(-c4ccc(O)cc4)ncn3CC(F)F)nn12` [250′, 6-(1-(2,2-difluoroethyl)-4-(4-hydroxyphenyl)-1H-imidazol-5-yl)imidazo[1,2-b]pyridazine-3-carbonitrile], the half-inhibitory concentration (IC50) was 136 nM.

As to `N#Cc1cnc2ccc(-c3c(-c4ccc5c(c4)OCO5)ncn3CC(F)F)nn12` [247′, 6-(4-(benzo[d][1,3]dioxol-5-yl)-1-(2,2-difluoroethyl)-1H-imidazol-5-yl)imidazo[1,2-b]pyridazine-3-carbonitrile], the IC50 was determined as 14.3 nM.

Consider `C=Cc1cnc2ccc(-c3c(-c4ccc(F)cc4)ncn3CC(F)F)nn12` [213E′, 6-(1-(2,2-difluoroethyl)-4-(4-fluorophenyl)-1H-imidazol-5-yl)-3-vinylimidazo[1,2-b]pyridazine], for which the half-inhibitory concentration (IC50) stood at 1.6 nM.

In the case of `N#Cc1cnc2ccc(-c3c(-c4ccc(F)c(Cl)c4)ncn3CCO)cn12` [100′, 6-(4-(3-chloro-4-fluorophenyl)-1-(2-hydroxyethyl)-1H-imidazol-5-yl)imidazo[1,2-a]pyridine-3-carbonitrile], the IC50 was 11.6 nM.

`N#Cc1cnc2ccc(-c3[nH]cnc3-c3ccc(F)cc3)nn12` [18′, 6-(4-(4-fluorophenyl)-1H-imidazol-5-yl)imidazo[1,2-b]pyridazine-3-carbonitrile]: the half-maximal inhibitory concentration (IC50) was 10.5 nM.

As for `CCC(C)(C)n1cnc(-c2ccc(F)cc2)c1-c1ccc2ncc(C#N)n2n1` [30′, 6-(4-(4-fluorophenyl)-1-(tert-pentyl)-1H-imidazol-5-yl)imidazo[1,2-b]pyridazine-3-carbonitrile], the IC50 is 9.2 nM.

Turning to `N#Cc1cnc2ccc(-c3c(-c4cccc(C(N)=O)c4)ncn3CC(F)F)nn12` [255′, 3-(5-(3-cyanoimidazo[1,2-b]pyridazin-6-yl)-1-(2,2-difluoroethyl)-1H-imidazol-4-yl)benzamide], the IC50 came out at 867 nM.

For `CCn1cnc(-c2ccc(F)cc2)c1-c1ccc2ncc(C#N)n2n1` [10′, 6-(1-ethyl-4-(4-fluorophenyl)-1H-imidazol-5-yl)imidazo[1,2-b]pyridazine-3-carbonitrile], the IC50 turned out to be 2.5 nM.

As for `CC(C)Cn1cnc(-c2ccc(F)cc2)c1-c1ccc2ncc(C(N)=O)n2c1` [168′, 6-(4-(4-fluorophenyl)-1-isobutyl-1H-imidazol-5-yl)imidazo[1,2-a]pyridine-3-carboxamide], the IC50 is 1.1 nM.

(Values after US9884868B2, “TGF-beta inhibitors” (Rigel Pharmaceuticals, Inc., priority 2015, dated 2018).)
